According to ChEMBL document CHEMBL5576112, “Synthesis, in silico, in vitro evaluation of furanyl- and thiophenyl-3-phenyl-1H-indole-2-carbohydrazide derivatives as tubulin inhibitors and anticancer agents” (RSC Med Chem, 2024):
Activity calls are given as the source filed them. The rule behind the calls is not given here.

Columns and labels:
[1] = system: K562; assay: Growth inhibition of human K562 cells at 10 uM measured after 48 hrs by sulforhodamine B assay; format: functional, cell-based
[2] = system: MCF7; assay: Growth inhibition of human MCF7 cells measured after 48 hrs by sulforhodamine B assay; format: functional
[3] = system: OVCAR-8; assay: Growth inhibition of human OVCAR-8 cells measured after 48 hrs by sulforhodamine B assay; format: functional; conditions: for CC50: read-out: LC50 (the source's name)
[4] = system: K562; assay: Growth inhibition of human K562 cells measured after 48 hrs by sulforhodamine B assay; format: functional; conditions: for CC50: read-out: LC50 (the source's name)
[5] = system: COLO 205; assay: Growth inhibition of human COLO 205 cells at 10 uM measured after 48 hrs by sulforhodamine B assay; format: functional, cell-based
[6] = system: NCI-H522; assay: Growth inhibition of human NCI-H522 cells at 10 uM measured after 48 hrs by sulforhodamine B assay; format: functional, cell-based
[7] = system: NCI-H522; assay: Growth inhibition of human NCI-H522 cells measured after 48 hrs by sulforhodamine B assay; format: functional; conditions: for CC50: read-out: LC50 (the source's name)
[8] = system: MDA-MB-435; assay: Growth inhibition of human MDA-MB-435 cells at 10 uM measured after 48 hrs by sulforhodamine B assay; format: functional, cell-based
[9] = species: Sus scrofa; assay: Inhibition of porcine brain tubulin polymerization assessed as microtubule destabilization at 10 uM measured at 60 secs interval for 60 mins in presence of GTP by fluorescence assay
[10] = system: SK-MEL-5; assay: Growth inhibition of human SK-MEL-5 cells at 10 uM measured after 48 hrs by sulforhodamine B assay; format: functional, cell-based
[11] = system: MCF7; assay: Growth inhibition of human MCF7 cells at 10 uM measured after 48 hrs by sulforhodamine B assay; format: functional, cell-based
[12] = system: MDA-MB-435; assay: Growth inhibition of human MDA-MB-435 cells measured after 48 hrs by sulforhodamine B assay; format: functional; conditions: for CC50: read-out: LC50 (the source's name)
[13] = system: COLO 205; assay: Growth inhibition of human COLO 205 cells measured after 48 hrs by sulforhodamine B assay; format: functional; conditions: for CC50: read-out: LC50 (the source's name)
[14] = system: OVCAR-8; assay: Growth inhibition of human OVCAR-8 cells at 10 uM measured after 48 hrs by sulforhodamine B assay; format: functional, cell-based
[15] = system: SK-MEL-5; assay: Growth inhibition of human SK-MEL-5 cells measured after 48 hrs by sulforhodamine B assay; format: functional; conditions: for CC50: read-out: LC50 (the source's name)
[16] = system: UACC-62; assay: Growth inhibition of human UACC-62 cells at 10 uM measured after 48 hrs by sulforhodamine B assay; format: functional, cell-based
[17] = system: UACC-62; assay: Growth inhibition of human UACC-62 cells measured after 48 hrs by sulforhodamine B assay; format: functional; conditions: for CC50: read-out: LC50 (the source's name)
[18] = species: Sus scrofa; assay: Inhibition of porcine brain tubulin polymerization assessed as microtubule destabilization by measuring relative fluorescence unit at 10 uM measured at 60 secs interval for 60 mins in presence of GTP by fluorescence assay

N#Cc1ccc(/C=N/NC(=O)c2[nH]c3ccc(Br)cc3c2-c2ccccc2)o1
growth inhibition (GI) [1]: Active | GI50 [2]: 324 nM | LC50 [2]: > 100000 nM | GI50 [3]: 209 nM | CC50 [3]: > 100000 nM | GI50 [4]: 69 nM | CC50 [4]: > 100000 nM | growth inhibition (GI) [5]: Active | growth inhibition (GI) [6]: Active | GI50 [7]: 82.6 nM | CC50 [7]: > 100000 nM | growth inhibition (GI) [8]: Active | inhibition [9]: inactive | growth inhibition (GI) [10]: Active | growth inhibition (GI) [11]: Active | GI50 [12]: 186 nM | CC50 [12]: > 100000 nM | GI50 [13]: 198 nM | CC50 [13]: 692 nM | growth inhibition (GI) [14]: Active | GI50 [15]: 231 nM | CC50 [15]: > 100000 nM | growth inhibition (GI) [16]: Active | GI50 [17]: 462 nM | CC50 [17]: > 100000 nM

O=C(N/N=C/c1cccs1)c1[nH]c2ccc(Br)cc2c1-c1ccccc1
growth inhibition (GI) [5]: Active | growth inhibition (GI) [6]: Active | growth inhibition (GI) [7]: Active | CC50 [7]: > 10000 nM | growth inhibition (GI) [8]: Active | growth inhibition (GI) [10]: Active | growth inhibition (GI) [12]: Active | CC50 [12]: > 10000 nM | growth inhibition (GI) [13]: Active | CC50 [13]: > 10000 nM | growth inhibition (GI) [15]: Active | CC50 [15]: > 10000 nM

O=C(N/N=C/c1ccc([N+](=O)[O-])o1)c1[nH]c2ccc(Br)cc2c1-c1ccccc1
growth inhibition (GI) [1]: Active | GI50 [2]: 44.3 nM | LC50 [2]: > 100000 nM | GI50 [3]: 184 nM | CC50 [3]: 4190 nM | GI50 [4]: 54 nM | CC50 [4]: > 100000 nM | growth inhibition (GI) [5]: Active | growth inhibition (GI) [6]: Active | GI50 [7]: 37.4 nM | CC50 [7]: 5390 nM | growth inhibition (GI) [8]: Active | growth inhibition (GI) [10]: Active | growth inhibition (GI) [11]: Active | GI50 [12]: 80.8 nM | CC50 [12]: 734 nM | RFU [18]: 45 a.u. | GI50 [13]: 233 nM | CC50 [13]: 1790 nM | growth inhibition (GI) [14]: Active | GI50 [15]: 213 nM | CC50 [15]: 2620 nM | growth inhibition (GI) [16]: Active | GI50 [17]: 73.1 nM | CC50 [17]: 5290 nM

COc1ccc(/C=N/NC(=O)c2[nH]c3ccc(Br)cc3c2-c2ccccc2)o1
growth inhibition (GI) [1]: Active | GI50 [2]: 34.9 nM | LC50 [2]: > 100000 nM | GI50 [3]: 84.5 nM | CC50 [3]: > 100000 nM | GI50 [4]: 47 nM | CC50 [4]: > 100000 nM | growth inhibition (GI) [5]: Active | growth inhibition (GI) [6]: Active | GI50 [7]: 18.4 nM | CC50 [7]: > 100000 nM | growth inhibition (GI) [8]: Active | growth inhibition (GI) [10]: Active | growth inhibition (GI) [11]: Active | GI50 [12]: 77.5 nM | CC50 [12]: 747 nM | GI50 [13]: 187 nM | CC50 [13]: 659 nM | growth inhibition (GI) [14]: Active | GI50 [15]: 139 nM | CC50 [15]: > 100000 nM | growth inhibition (GI) [16]: Active | GI50 [17]: 53.5 nM | CC50 [17]: > 100000 nM

O=C(N/N=C/c1ccco1)c1[nH]c2ccc(Br)cc2c1-c1ccccc1
growth inhibition (GI) [1]: Active | GI50 [2]: 41.4 nM | LC50 [2]: > 100000 nM | GI50 [3]: 121 nM | CC50 [3]: > 100000 nM | GI50 [4]: 40.7 nM | CC50 [4]: > 100000 nM | growth inhibition (GI) [5]: Active | growth inhibition (GI) [6]: Active | GI50 [7]: 23.9 nM | CC50 [7]: > 100000 nM | growth inhibition (GI) [8]: Active | growth inhibition (GI) [10]: Active | growth inhibition (GI) [11]: Active | GI50 [12]: 34 nM | CC50 [12]: > 100000 nM | RFU [18]: 50 a.u. | GI50 [13]: 113 nM | CC50 [13]: > 100000 nM | growth inhibition (GI) [14]: Active | GI50 [15]: 88.7 nM | CC50 [15]: > 100000 nM | growth inhibition (GI) [16]: Active | GI50 [17]: 39.4 nM | CC50 [17]: > 100000 nM

O=C(N/N=C/c1ccsc1)c1[nH]c2ccc(Br)cc2c1-c1ccccc1
growth inhibition (GI) [5]: Active | growth inhibition (GI) [6]: Active | GI50 [7]: > 100 nM | CC50 [7]: > 10000 nM | growth inhibition (GI) [8]: Active | growth inhibition (GI) [10]: Active | GI50 [12]: 78.9 nM | CC50 [12]: > 10000 nM | GI50 [13]: > 100 nM | CC50 [13]: > 10000 nM | GI50 [15]: > 100 nM | CC50 [15]: > 10000 nM

N#Cc1ccc(/C=N/NC(=O)c2[nH]c3ccc(Br)cc3c2-c2ccccc2)s1
growth inhibition (GI) [5]: Active | growth inhibition (GI) [6]: Active | GI50 [7]: 23 nM | CC50 [7]: > 100000 nM | growth inhibition (GI) [8]: Active | inhibition [9]: inactive | growth inhibition (GI) [10]: Active | GI50 [12]: 36 nM | CC50 [12]: > 100000 nM | GI50 [13]: 195 nM | CC50 [13]: > 100000 nM | GI50 [15]: 124 nM | CC50 [15]: 4610 nM

O=C(O)c1ccc(-c2ccc(/C=N/NC(=O)c3[nH]c4ccc(Br)cc4c3-c3ccccc3)s2)cc1
growth inhibition (GI) [5]: Active | growth inhibition (GI) [6]: Active | growth inhibition (GI) [7]: Active | growth inhibition (GI) [8]: Active | growth inhibition (GI) [10]: Active | growth inhibition (GI) [12]: Active | growth inhibition (GI) [13]: Active | growth inhibition (GI) [15]: Active

O=C(N/N=C/c1ccc([N+](=O)[O-])s1)c1[nH]c2ccc(Br)cc2c1-c1ccccc1
growth inhibition (GI) [5]: Active | growth inhibition (GI) [6]: Active | GI50 [7]: 47.3 nM | CC50 [7]: > 100000 nM | growth inhibition (GI) [8]: Active | inhibition [9]: inactive | growth inhibition (GI) [10]: Active | GI50 [12]: 181 nM | CC50 [12]: 861 nM | GI50 [13]: 203 nM | CC50 [13]: 795 nM | GI50 [15]: 214 nM | CC50 [15]: 1870 nM

O=C(N/N=C/c1ccc(-c2ccc(O)cc2)s1)c1[nH]c2ccc(Br)cc2c1-c1ccccc1
growth inhibition (GI) [5]: Active | growth inhibition (GI) [6]: Active | growth inhibition (GI) [7]: Active | growth inhibition (GI) [8]: Active | growth inhibition (GI) [10]: Active | growth inhibition (GI) [12]: Active | growth inhibition (GI) [13]: Active | growth inhibition (GI) [15]: Active

O=C(N/N=C/c1ccc(B(O)O)s1)c1[nH]c2ccc(Br)cc2c1-c1ccccc1
growth inhibition (GI) [5]: Active | growth inhibition (GI) [6]: Active | GI50 [7]: > 100 nM | growth inhibition (GI) [8]: Active | growth inhibition (GI) [10]: Active | GI50 [12]: > 100 nM | GI50 [13]: > 100 nM | CC50 [13]: 4980 nM | GI50 [15]: > 100 nM

O=C(N/N=C/c1ccc(-c2cccc([N+](=O)[O-])c2)o1)c1[nH]c2ccc(Br)cc2c1-c1ccccc1
growth inhibition (GI) [6]: Active | CC50 [7]: 9130 nM
